Legend:
[1] = system: established yeast models (mutated MAD1/MAD2 and secondary genes); assay: yeast-based drug screening assay (control system showing lethality versus test system with drug added); assay type: cell-based; details: among tested compounds; pharmaceutically acceptable concentrations
Method: In essence assay consists of control system in which one observes lethality and test system to which a drug is added and its effect is evaluated based on difference between control and test system. If drug enhances lethality or reverses it this drug is considered as a candidate drug that may be specific in the biochemical pathway controlled by primary and secondary genes.

glioblastoma cells [2] = assay: growth, replication and phenotype of glioblastoma cells under continuous drug treatment; assay type: cell-based, human
glioblastoma cells [3] = assay: tumorigenicity of treated tumor cells in athymic mice; assay type: in vivo

Compound: O=C([O-])CCCc1ccccc1.[Na+] [phenylbutyrate, 4-phenylbutyrtic acid sodium salt]
- activity in yeast-based screening [1]: active at pharmaceutically acceptable concentrations
- inhibition of growth (glioblastoma cells [2]; 4 mM, after 4-6 days of continuous treatment, glioblastoma cells): approximately 50%
- tumor cell replication (glioblastoma cells [2]; glioblastoma cells, phenylacetate metabolites compared): inhibited tumor cell replication
- cell maturation and phenotype (cytoskeletal intermediate filaments, anchorage-independence) (glioblastoma cells [2]; tumor cells): promoted cell maturation and reversion to a nonmalignant phenotype
- tumorigenicity in athymic mice (glioblastoma cells [3]): reduced tumorigenicity

Reference: patent US20060029989A1, “Targeting cells having Mad2 mutation for treatment and/or prevention of disease” (Regents of the University of California, priority 1999, published 2006)
